The target in series [1] is T1, Farnesyl protein transferase (FPT) (Homo sapiens, UniProt P49354+P49356).
T1 construct: partially purified from human placenta by ammonium sulphate fractionation; from tissue; host or cells: human placenta
Nature of the series: Farnesyl protein transferase (FPT) inhibition, tritiated farnesyl pyrophosphate incorporation into Kras (CVIM). It counts as biochemical. To be noted: FPT partially purified from human placenta; 300 nM tritiated farnesyl pyrophosphate, 120 nM ras-CVIM, 20 minutes at 37°. The procedure:
Biological activity was tested as follows. Farnesyl protein transferase (FPT) was partially purified from human placenta by ammonium sulphate fractionation followed by a single Q-Sepharose™ (Pharmacia, Inc) anion exchange chromatography essentially as described by Ray and Lopez-Belmonte (Ray K P and Lopez-Belmonte J (1992) Biochemical Society Transations 20 494-497). The substrate for FPT was Kras (CVIM C-terminal sequence). The cDNA for oncogenic va112 variant of human c-Ki-ras-2 4B was obtained from the plasmid pSW11-1 (ATCC). This was then subcloned into the polylinker of a suitable expression vector e.g. pIC147, The Kras was obtained after expression in the E. coli strain, BL21. The expression and purification of c-KI-ras-2 4B and the val12 variant in E. coli has also been reported by Lowe et al (Lowe P N et al. J. Biol. Chem. (1991) 266 1672-1678).
Incubations with enzyme contained 300 nM tritiated farnesyl pyrophosphate (DuPont/New England Nuclear), 120 nM ras-CVIM, 50 mM Tris HCl pH 8.0, 5 mM MgCl2, 10 μM ZnCl2, 5 mM dithiotheitol and compounds were added at appropriate concentrations in DMSO (3% final concentration in test and vehicle control). […] Precipitated protein was then collected onto glass fibre filter mats (B) using a Tomtec™ cell harvester and tritiated label was measured in a Wallac™ 1204 Betaplate scintillation counter.

The term melting point denotes the temperature of the solid-liquid transition. As for `CSCC[C@H](NC(=O)c1cccc(/C=C(\Cn2ccnc2)c2ccc(F)cc2)c1)C(=O)O` [Example 3, (2S)-2-{3-[(Z)-2-(4-fluorophenyl)-3-(imidazol-1-yl)-prop-1-enyl]-benzamido}-4-methylsulfanylbutyric acid], the melting point fell in the range of 98 to 100 °C.
In turn, `CSCC[C@H](NC(=O)c1ccc(/C=C(/Cn2ccnc2)c2ccc(F)cc2)cc1)C(=O)O` [Example 12, (2S)-2-{4-[(E)-2-(4-Fluorophenyl)-3-(imidazol-1-yl)-prop-1-en-1-yl]benzamido}-4-methylsulfanylbutyric acid] showed a melting point of 106 °C.
In general, IC50 refers to the concentration at which inhibition is half-maximal. In the case of `CSCC[C@H](NC(=O)c1ccc(/C=C(\c2ccccc2)C(C)n2ccnc2)cc1)C(=O)O` (stereo partly drawn) [Example 6, (2S)-2-{4-[(E)-3-(imidazol-1-yl)-3-methyl-2-phenyl-prop-1-enyl]-benzamido}-4-methylsulfanylbutyric acid], the half-inhibitory concentration (IC50) in series [1] was ~150 nM.
